In patent US9796671B2, “Aurora kinase inhibitors” (REGENTS OF THE UNIVERSITY OF MINNESOTA, priority 2012, dated 2017):

Tests used:
Experiment in all cases: Kinase profile assay (Millipore)
Type in all cases: biochemical
EGFR = biological target: T1, EGFR (Homo sapiens, UniProt P00533); conditions: 5 μM
T1 construct: purchased Millipore
Method: (§1) A kinase profile assay was performed by Millipore, to examine other potential targets of Compound 1. Only Akt2 activity was suppressed more than 50% after 5 μM compound 1 treatment, compared with the control (Table 2). In addition, the kinase activity of Aurora A was decreased less than 25% at 5 μM Compound 1.

Abl = biological target: T2, Abl (Homo sapiens, UniProt P00519); conditions: read-out: kinase activity compared with the control
T2 construct: purchased Millipore
Method: as §1

CDK3/cyclinE = biological target: T3, CDK3/cyclinE (Homo sapiens, UniProt Q00526); conditions: 5 μM
T3 construct: purchased Millipore
Method: as §1

RSK2 = biological target: T4, RSK2 (Homo sapiens, UniProt P51812); conditions: read-out: kinase activity compared with the control
T4 construct: purchased Millipore
Method: as §1

c-Kit = biological target: T5, c-Kit (Homo sapiens, UniProt P10721); conditions: read-out: kinase activity compared with the control
T5 construct: purchased Millipore
Method: as §1

FAK = biological target: T6, FAK (Homo sapiens, UniProt Q05397); conditions: read-out: kinase activity compared with the control
T6 construct: purchased Millipore
Method: as §1

MKK4 = biological target: T7, MKK4 (Mus musculus, UniProt P47809); conditions: read-out: kinase activity compared with the control
T7 construct: purchased Millipore
Method: as §1

c-Src = biological target: T8, c-Src (Homo sapiens, UniProt P12931); conditions: read-out: kinase activity compared with the control
T8 construct: purchased Millipore
Method: as §1

PKB alpha (Akt1) = biological target: T9, PKB alpha (Akt1) (Homo sapiens, UniProt P31749); conditions: read-out: kinase activity compared with the control
T9 construct: purchased Millipore
Method: as §1

MEK1 = biological target: T10, MEK1 (Homo sapiens, UniProt Q02750); conditions: read-out: kinase activity compared with the control
T10 construct: purchased Millipore
Method: as §1

IGF-1R = biological target: T11, IGF-1R (Homo sapiens, UniProt P08069); conditions: read-out: kinase activity compared with the control
T11 construct: purchased Millipore
Method: as §1

Pim-1 = biological target: T12, Pim-1 (Homo sapiens, UniProt P11309); conditions: read-out: kinase activity compared with the control
T12 construct: purchased Millipore
Method: as §1

KDR = biological target: T13, KDR (Homo sapiens, UniProt P35968); conditions: read-out: kinase activity compared with the control
T13 construct: purchased Millipore
Method: as §1

Fyn = biological target: T14, Fyn (Homo sapiens, UniProt P06241); conditions: read-out: kinase activity compared with the control
T14 construct: purchased Millipore
Method: as §1

JNK1 alpha1 = biological target: T15, JNK1 alpha1 (Homo sapiens, UniProt P45983); conditions: 5 μM
T15 construct: purchased Millipore
Method: as §1

PI3-K beta = PI3-K beta (Homo sapiens, UniProt P42338); conditions: read-out: kinase activity compared with the control
Method: as §1

p70S6K = biological target: T16, p70S6K (Homo sapiens, UniProt P23443); conditions: read-out: kinase activity compared with the control
T16 construct: purchased Millipore
Method: as §1

PI3-K delta = PI3-K delta (Homo sapiens, UniProt O00329); conditions: read-out: kinase activity compared with the control
Method: as §1

MKK7 beta = biological target: T17, MKK7 beta (Homo sapiens, UniProt O14733); conditions: 5 μM
T17 construct: purchased Millipore
Method: as §1

MAPK2 = biological target: T18, MAPK2 (Homo sapiens, UniProt P28482); conditions: read-out: kinase activity compared with the control
T18 construct: purchased Millipore
Method: as §1

Aurora A = biological target: T19, Aurora A (Homo sapiens, UniProt O14965)
T19 construct: purchased Millipore
T19 sequence (O14965 1-403): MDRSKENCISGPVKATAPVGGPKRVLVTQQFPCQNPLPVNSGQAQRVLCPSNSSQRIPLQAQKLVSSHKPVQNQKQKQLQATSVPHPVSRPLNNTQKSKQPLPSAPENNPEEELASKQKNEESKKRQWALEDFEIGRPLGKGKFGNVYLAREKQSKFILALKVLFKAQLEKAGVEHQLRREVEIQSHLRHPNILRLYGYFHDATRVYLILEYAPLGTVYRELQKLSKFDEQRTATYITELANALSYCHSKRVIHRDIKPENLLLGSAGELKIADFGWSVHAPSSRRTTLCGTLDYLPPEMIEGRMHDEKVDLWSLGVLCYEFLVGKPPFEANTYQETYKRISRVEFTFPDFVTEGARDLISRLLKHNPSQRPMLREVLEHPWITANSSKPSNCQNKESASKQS
Method: as §1

PDK1 = biological target: T20, PDK1 (Homo sapiens, UniProt O15530); conditions: read-out: kinase activity compared with the control
T20 construct: purchased Millipore
Method: as §1

mTOR = biological target: T21, mTOR (Homo sapiens, UniProt P42345); conditions: read-out: kinase activity compared with the control
T21 construct: purchased Millipore
Method: as §1

IKK beta = biological target: T22, IKK beta (Homo sapiens, UniProt O14920); conditions: read-out: kinase activity compared with the control
T22 construct: purchased Millipore
Method: as §1

EGFR (T790M, L858R) = biological target: T23, EGFR (T790M, L858R) (Homo sapiens, UniProt P00533, L858R/T790M); conditions: 5 μM
T23 construct: purchased Millipore
Method: as §1

GSK3 alpha = biological target: T24, GSK3 alpha (Homo sapiens, UniProt P49840); conditions: read-out: kinase activity compared with the control
T24 construct: purchased Millipore
Method: as §1

Flt3 = biological target: T25, Flt3 (Homo sapiens, UniProt P36888); conditions: read-out: kinase activity compared with the control
T25 construct: purchased Millipore
Method: as §1

MKK6 = biological target: T26, MKK6 (Homo sapiens, UniProt P52564); conditions: read-out: kinase activity compared with the control
T26 construct: purchased Millipore
Method: as §1

CDK1/cyclinB = biological target: T27, CDK1/cyclinB (Homo sapiens, UniProt P06493); conditions: read-out: kinase activity compared with the control
T27 construct: purchased Millipore
Method: as §1

mTOR/FKBP12 = biological target: T28, mTOR/FKBP12 (Homo sapiens, UniProt P42345); conditions: read-out: kinase activity compared with the control
T28 construct: purchased Millipore
Method: as §1

DYRK2 = biological target: T29, DYRK2 (Homo sapiens, UniProt Q92630); conditions: read-out: kinase activity compared with the control
T29 construct: purchased Millipore
Method: as §1

MSK1 = biological target: T30, MSK1 (Homo sapiens, UniProt O75582); conditions: read-out: kinase activity compared with the control
T30 construct: purchased Millipore
Method: as §1

CSK = biological target: T31, CSK (Homo sapiens, UniProt P41240); conditions: 5 μM
T31 construct: purchased Millipore
Method: as §1

MSK2 = biological target: T32, MSK2 (Homo sapiens, UniProt O75676); conditions: read-out: kinase activity compared with the control
T32 construct: purchased Millipore
Method: as §1

JNK2 alpha2 = biological target: T33, JNK2 alpha2 (Homo sapiens, UniProt P45984); conditions: 5 μM
T33 construct: purchased Millipore
Method: as §1

PI3-K alpha = PI3-K alpha (Homo sapiens, UniProt P42336); conditions: read-out: kinase activity compared with the control
Method: as §1

T29 sequence (Q92630 whole entry, species assumed): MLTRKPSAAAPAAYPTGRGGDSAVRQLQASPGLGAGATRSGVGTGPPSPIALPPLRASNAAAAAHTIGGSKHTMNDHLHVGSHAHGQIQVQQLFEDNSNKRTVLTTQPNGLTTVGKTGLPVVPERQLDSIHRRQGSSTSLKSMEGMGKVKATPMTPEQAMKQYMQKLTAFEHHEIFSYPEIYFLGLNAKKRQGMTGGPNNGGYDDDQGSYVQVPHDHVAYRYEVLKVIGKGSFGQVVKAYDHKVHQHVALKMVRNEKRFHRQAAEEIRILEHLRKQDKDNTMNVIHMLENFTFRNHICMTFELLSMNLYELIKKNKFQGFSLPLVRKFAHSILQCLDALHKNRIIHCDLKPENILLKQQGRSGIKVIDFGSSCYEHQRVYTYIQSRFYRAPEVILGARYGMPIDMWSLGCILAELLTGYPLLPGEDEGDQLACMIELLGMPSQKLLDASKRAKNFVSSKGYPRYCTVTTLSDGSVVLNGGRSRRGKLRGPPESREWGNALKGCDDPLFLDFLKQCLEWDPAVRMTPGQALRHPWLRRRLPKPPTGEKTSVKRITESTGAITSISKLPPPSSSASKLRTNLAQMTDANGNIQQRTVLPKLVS
T5 sequence (P10721 26-976): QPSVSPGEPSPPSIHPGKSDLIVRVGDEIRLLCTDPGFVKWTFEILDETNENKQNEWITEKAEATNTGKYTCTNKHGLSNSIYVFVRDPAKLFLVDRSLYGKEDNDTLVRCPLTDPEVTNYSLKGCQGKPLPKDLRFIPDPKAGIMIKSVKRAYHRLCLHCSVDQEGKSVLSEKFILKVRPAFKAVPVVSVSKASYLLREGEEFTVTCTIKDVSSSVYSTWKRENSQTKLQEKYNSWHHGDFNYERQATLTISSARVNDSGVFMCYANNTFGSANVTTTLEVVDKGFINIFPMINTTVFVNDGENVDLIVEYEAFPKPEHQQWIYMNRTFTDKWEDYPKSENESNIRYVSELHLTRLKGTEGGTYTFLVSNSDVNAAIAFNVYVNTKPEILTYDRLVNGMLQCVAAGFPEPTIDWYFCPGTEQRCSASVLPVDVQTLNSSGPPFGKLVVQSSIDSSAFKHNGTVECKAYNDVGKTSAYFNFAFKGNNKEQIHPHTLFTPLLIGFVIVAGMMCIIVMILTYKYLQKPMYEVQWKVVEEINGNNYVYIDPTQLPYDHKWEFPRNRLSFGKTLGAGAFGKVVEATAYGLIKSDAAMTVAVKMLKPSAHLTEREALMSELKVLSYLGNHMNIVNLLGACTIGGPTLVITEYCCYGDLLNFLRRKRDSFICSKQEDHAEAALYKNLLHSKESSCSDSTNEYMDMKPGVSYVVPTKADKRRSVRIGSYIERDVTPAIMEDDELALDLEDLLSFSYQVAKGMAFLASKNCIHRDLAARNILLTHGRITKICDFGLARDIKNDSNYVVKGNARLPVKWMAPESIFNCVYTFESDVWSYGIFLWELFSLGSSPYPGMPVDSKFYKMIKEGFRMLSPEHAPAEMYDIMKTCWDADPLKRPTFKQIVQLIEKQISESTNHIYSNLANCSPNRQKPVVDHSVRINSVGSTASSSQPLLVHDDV
T12 sequence (P11309 whole entry, species assumed): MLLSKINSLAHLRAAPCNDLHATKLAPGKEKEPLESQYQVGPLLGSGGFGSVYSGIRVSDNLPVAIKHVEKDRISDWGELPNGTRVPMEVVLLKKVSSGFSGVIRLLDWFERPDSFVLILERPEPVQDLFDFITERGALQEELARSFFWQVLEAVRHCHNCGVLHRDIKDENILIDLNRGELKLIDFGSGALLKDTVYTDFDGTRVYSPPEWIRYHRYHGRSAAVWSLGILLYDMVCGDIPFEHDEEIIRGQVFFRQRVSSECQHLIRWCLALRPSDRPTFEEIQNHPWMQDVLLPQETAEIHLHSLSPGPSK
Sequence of PI3-K alpha (P42336 whole entry, species assumed): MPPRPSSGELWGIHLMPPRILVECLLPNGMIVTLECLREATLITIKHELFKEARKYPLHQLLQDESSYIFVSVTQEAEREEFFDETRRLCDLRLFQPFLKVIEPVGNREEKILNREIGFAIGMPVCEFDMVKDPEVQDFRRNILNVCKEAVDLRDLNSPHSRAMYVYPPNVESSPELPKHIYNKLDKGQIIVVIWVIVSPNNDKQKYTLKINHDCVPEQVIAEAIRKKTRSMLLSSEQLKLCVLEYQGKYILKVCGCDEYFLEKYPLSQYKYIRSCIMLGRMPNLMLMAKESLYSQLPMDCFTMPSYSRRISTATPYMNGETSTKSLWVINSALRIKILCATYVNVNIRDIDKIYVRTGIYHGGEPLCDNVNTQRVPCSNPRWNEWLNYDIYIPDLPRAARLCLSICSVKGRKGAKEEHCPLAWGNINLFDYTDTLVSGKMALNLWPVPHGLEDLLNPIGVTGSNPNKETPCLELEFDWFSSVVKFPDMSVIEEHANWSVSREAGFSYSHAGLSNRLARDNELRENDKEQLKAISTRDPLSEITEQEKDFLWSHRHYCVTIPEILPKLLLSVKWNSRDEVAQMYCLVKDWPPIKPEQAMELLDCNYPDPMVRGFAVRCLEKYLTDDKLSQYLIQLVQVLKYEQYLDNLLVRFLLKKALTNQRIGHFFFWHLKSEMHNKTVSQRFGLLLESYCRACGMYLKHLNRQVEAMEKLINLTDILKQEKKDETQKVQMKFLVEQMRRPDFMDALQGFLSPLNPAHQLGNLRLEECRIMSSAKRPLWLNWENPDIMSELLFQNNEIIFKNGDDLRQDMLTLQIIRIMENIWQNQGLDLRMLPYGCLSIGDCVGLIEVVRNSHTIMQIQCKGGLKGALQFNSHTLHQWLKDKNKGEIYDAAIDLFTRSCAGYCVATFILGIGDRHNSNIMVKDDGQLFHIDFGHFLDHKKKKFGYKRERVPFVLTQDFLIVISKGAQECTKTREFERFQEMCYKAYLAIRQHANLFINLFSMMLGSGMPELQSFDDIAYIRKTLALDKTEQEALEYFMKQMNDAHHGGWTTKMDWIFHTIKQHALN
Sequence of PI3-K alpha (P27986 whole entry partner, species assumed): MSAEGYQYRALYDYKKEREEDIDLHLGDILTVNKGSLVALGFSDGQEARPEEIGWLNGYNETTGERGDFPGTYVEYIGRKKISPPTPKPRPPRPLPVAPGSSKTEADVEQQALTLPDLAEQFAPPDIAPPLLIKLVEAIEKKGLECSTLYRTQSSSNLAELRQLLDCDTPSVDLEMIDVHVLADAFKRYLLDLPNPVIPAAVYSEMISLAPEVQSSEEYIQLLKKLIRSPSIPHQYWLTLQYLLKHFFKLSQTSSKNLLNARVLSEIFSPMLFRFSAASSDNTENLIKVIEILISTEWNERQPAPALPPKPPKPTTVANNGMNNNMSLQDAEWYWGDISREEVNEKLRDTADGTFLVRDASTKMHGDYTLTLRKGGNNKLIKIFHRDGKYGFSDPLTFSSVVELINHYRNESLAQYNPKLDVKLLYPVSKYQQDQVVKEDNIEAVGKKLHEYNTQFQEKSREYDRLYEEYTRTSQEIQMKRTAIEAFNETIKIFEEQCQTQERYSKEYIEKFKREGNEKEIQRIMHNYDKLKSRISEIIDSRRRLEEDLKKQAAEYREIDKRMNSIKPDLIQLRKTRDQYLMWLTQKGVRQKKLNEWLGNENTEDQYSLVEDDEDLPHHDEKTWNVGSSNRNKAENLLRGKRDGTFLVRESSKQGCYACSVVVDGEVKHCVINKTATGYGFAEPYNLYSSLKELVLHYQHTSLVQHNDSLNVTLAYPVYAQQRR
T17 sequence (O14733 whole entry): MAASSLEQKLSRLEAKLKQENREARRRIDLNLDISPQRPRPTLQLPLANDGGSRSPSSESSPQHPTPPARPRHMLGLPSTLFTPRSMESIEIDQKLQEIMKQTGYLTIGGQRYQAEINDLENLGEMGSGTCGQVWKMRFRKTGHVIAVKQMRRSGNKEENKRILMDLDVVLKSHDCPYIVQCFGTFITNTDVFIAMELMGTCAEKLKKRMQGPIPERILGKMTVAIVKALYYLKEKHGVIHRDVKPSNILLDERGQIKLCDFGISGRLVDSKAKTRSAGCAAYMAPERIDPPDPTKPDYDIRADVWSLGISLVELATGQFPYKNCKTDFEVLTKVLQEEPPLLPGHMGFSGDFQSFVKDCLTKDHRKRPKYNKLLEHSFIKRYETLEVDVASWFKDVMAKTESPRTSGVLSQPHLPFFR
T3 sequence (Q00526 whole entry, species assumed): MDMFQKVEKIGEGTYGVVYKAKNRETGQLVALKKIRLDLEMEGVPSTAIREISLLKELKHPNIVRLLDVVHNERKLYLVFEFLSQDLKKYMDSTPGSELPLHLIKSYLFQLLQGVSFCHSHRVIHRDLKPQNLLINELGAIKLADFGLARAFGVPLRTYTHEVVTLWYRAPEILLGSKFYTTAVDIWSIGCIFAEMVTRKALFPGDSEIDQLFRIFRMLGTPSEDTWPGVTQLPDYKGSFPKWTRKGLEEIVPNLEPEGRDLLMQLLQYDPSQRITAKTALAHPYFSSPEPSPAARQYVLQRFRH
T3 sequence (P24864 whole entry partner, species assumed): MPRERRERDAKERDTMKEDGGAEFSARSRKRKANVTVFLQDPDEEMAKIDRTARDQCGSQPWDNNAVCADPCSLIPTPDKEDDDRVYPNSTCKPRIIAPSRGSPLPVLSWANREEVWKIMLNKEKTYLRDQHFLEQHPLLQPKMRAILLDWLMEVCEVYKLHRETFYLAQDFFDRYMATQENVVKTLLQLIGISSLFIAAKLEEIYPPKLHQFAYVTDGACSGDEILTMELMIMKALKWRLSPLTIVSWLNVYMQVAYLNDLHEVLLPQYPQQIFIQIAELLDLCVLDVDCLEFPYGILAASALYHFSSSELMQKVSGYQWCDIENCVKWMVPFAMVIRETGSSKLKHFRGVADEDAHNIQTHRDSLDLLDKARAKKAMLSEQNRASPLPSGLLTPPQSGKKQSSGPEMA

With `O=C(/C=C/c1ccc2c(c1)OCO2)/C=C1/C(=O)Nc2ccccc21` [Compound 1] the “kinase activity compared with the control” value (EGFR) was 106, the remaining activity at 5 µM (Abl) was 109% and the “kinase activity compared with the control” value (CDK3/cyclinE) was 99. For the same compound, the remaining activity at 5 µM (RSK2) was 94%, the remaining activity at 5 µM (c-Kit) was 123% and the remaining activity at 5 µM (FAK) was 104%. It also gave a remaining activity at 5 µM (MKK4) of 130%, a remaining activity at 5 µM (c-Src) of 99% and a remaining activity at 5 µM (PKB alpha (Akt1)) of 68%. For the same compound, the remaining activity at 5 µM (MEK1) was 104%, the remaining activity at 5 µM (IGF-1R) was 105% and the remaining activity at 5 µM (Pim-1) was 96%. For the same compound, the remaining activity at 5 µM (KDR) was 93%, the remaining activity at 5 µM (Fyn) was 99% and the “kinase activity compared with the control” value (JNK1 alpha1) was 104. It also gave a remaining activity at 5 µM (PI3-K beta) of 103%, a remaining activity at 5 µM (p70S6K) of 72% and a remaining activity at 5 µM (PI3-K delta) of 105%. The “kinase activity compared with the control” value (MKK7 beta) was 94, the remaining activity at 5 µM (MAPK2) was 102% and the “kinase activity of Aurora A decreased (kinase profile)” value (Aurora A; 5 μM) was “less than 25%”. For the same compound, the remaining activity at 5 µM (Aurora A; Aurora A, read-out: kinase activity compared with the control) was 76%, the remaining activity at 5 µM (PDK1) was 96% and the remaining activity at 5 µM (mTOR) was 136%. The remaining activity at 5 µM (IKK beta) was 68%, the “kinase activity compared with the control” value (EGFR (T790M, L858R)) was 101 and the remaining activity at 5 µM (GSK3 alpha) was 85%. For the same compound, the remaining activity at 5 µM (Flt3) was 92%, the remaining activity at 5 µM (MKK6) was 129% and the remaining activity at 5 µM (CDK1/cyclinB) was 86%. The remaining activity at 5 µM (mTOR/FKBP12) was 86%, the remaining activity at 5 µM (DYRK2) was 97% and the remaining activity at 5 µM (MSK1) was 98%. For the same compound, the “kinase activity compared with the control” value (CSK) was 110, the remaining activity at 5 µM (MSK2) was 79% and the “kinase activity compared with the control” value (JNK2 alpha2) was 89. For the same compound, the remaining activity at 5 µM (PI3-K alpha) was 102%.
